Patent US10577362B2, “Substituted 2, 4-diamino-quinoline derivatives for use in the treatment of proliferative diseases” (GENOSCIENCE PHARMA, priority 2016, dated 2020)

Assays:
Assay type in all cases: cell-based, human
[1] = test system: HCT-116 (colorectal carcinoma) cell line; assay: CellTiter-Glo luminescent cell viability assay, HCT-116; conditions: Homo sapiens; for EC50: HCT-116 cell line, 72 h incubation, CellTiter-Glo, read-out: EC50, growth inhibition of HCT-116; for viability at 4 µM: HCT-116, compound at 4 μM; for viability at 4 µM / viability at 10 µM: 72 h; for viability at 10 µM: HCT-116, compound at 10 μM
Experimental: (§1) All cell lines were maintained in medium containing 1% penicillin-streptomycin (Dutscher, P06-07100) and 10% Fetal Bovine Serum (Hyclone Dutscher, RZK35922) cultured at 37° C. with 5% CO2. HepG2 (hepatocellular carcinoma), cell line was cultured in Dulbecco's modified Eagle's medium low glucose (Gibco, 21885025), Huh7 (hepatocellular carcinoma), HCT-116 (colorectal carcinoma), PANC-1 (prancreatic carcinoma) and A375 (malignant melanoma) cell lines were cultured in Dulbecco's modified Eagle's medium (Dutscher, L0103). MOLM-14 (acute myeloid leukemia) cell line was maintained in MEM alpha medium (Gibco, 22561-021). 786-0 (renal adenocarcinoma) cell lines were maintained in RPMI 1640 medium (Dutscher, L0498).
(§2) Cell viability was measured using the CellTiter-Glo® luminescent cell viability assay as described by the manufacturer (Promega, Ref G7571) using an Infinite F200Pro luminometer (Tecan). Briefly, for adherent cells, cells were plated onto 96-well plates (white with clear bottom) in 90 μL of media per well and were allowed to grow overnight before the assay. For cells growing in suspension, cells were plated onto 96-well plates 1 h before the assay.
(§3) Compounds were resuspended in H2O or DMSO and added at different concentrations to each well, and cell cultures were incubated for 72 h. Each diluent (H2O or DMSO) were used as a control, and all compounds were tested in a constant percentage of H2O or DMSO. On the day of the reading, plates are equilibrated 30 min at room temperature before the addition of 100 μL of CellTiter-Glo® and luminescence was measured using an Infinite F200Pro (Tecan). % cell viability were expressed as a percentage of the signal obtained for cell cultures treated with diluent. EC50 values were determined as the dose of compound required to reduce luminescent values to 50% of the signal obtained for cell cultures treated with diluent. The experimental data were analyzed using a computer program, Graphpad Prism v5 (GraphPad Software, Inc. La Jolla, Calif.). All points were at least done in duplicate.

[2] = test system: HepG2 (hepatocellular carcinoma) cell line; assay: CellTiter-Glo luminescent cell viability assay, HepG2; conditions: Homo sapiens; for EC50: HepG2 cell line, 72 h incubation, CellTiter-Glo, read-out: EC50, growth inhibition of HepG2; for viability at 4 µM / viability at 10 µM: HepG2, HepG, 72 h; for viability at 4 µM: compound at 4 μM; for viability at 10 µM: compound at 10 μM
Experimental: as §1, §2, §3

[3] = test system: A375 (malignant melanoma) cell line; assay: CellTiter-Glo luminescent cell viability assay, A375; conditions: Homo sapiens, A-375; for EC50: A375 cell line, 72 h incubation, CellTiter-Glo, read-out: EC50, growth inhibition of A375; for viability at 4 µM: A375, compound at 4 μM; for viability at 4 µM / viability at 10 µM: 72 h; for viability at 10 µM: A375, compound at 10 μM
Experimental: as §1, §2, §3

[4] = test system: Huh7 (hepatocellular carcinoma) cell line; assay: CellTiter-Glo luminescent cell viability assay, Huh7; conditions: Homo sapiens, Huh-7; for EC50: Huh7 cell line, 72 h incubation, CellTiter-Glo, read-out: EC50, growth inhibition of Huh7; for viability at 4 µM: Huh7, compound at 4 μM; for viability at 4 µM / viability at 10 µM: 72 h; for viability at 10 µM: Huh7, compound at 10 μM
Experimental: as §1, §2, §3

[5] = test system: MOLM-14 (acute myeloid leukemia) cell line; assay: CellTiter-Glo luminescent cell viability assay, MOLM-14; conditions: Homo sapiens; for EC50: MOLM-14 cell line, 72 h incubation, CellTiter-Glo, read-out: EC50, growth inhibition of MOLM-14; for viability at 4 µM: MOLM-14, compound at 4 μM; for viability at 4 µM / viability at 10 µM: 72 h; for viability at 10 µM: MOLM-14, compound at 10 μM
Experimental: as §1, §2, §3

[6] = test system: 786-O (renal adenocarcinoma) cell line; assay: CellTiter-Glo luminescent cell viability assay, 786-O; conditions: Homo sapiens, 786-0; for EC50: 786-O cell line, 72 h incubation, CellTiter-Glo, read-out: EC50, growth inhibition of 786-O; for viability at 4 µM / viability at 10 µM: 786-O, 72 h; for viability at 4 µM: compound at 4 μM; for viability at 10 µM: compound at 10 μM
Experimental: as §1, §2, §3

Structure (SMILES)	EC50 [1]	EC50 [2]	EC50 [3]	EC50 [4]	EC50 [5]	EC50 [6]	viability at 4 µM [1]	viability at 10 µM [1]	viability at 4 µM [2]	viability at 10 µM [2]	viability at 4 µM [3]	viability at 10 µM [3]	viability at 4 µM [4]	viability at 10 µM [4]	viability at 4 µM [5]	viability at 10 µM [5]	viability at 4 µM [6]	viability at 10 µM [6]
Cc1cc(C)nc(Nc2ccc(Nc3nc4ccccc4c(N4CCC(NC(C)(C)C)CC4)c3C#N)cc2C)n1 [Compound 502CN, 2-[4-(4,6-dimethyl-2-pyrimidinamino)-3-methyl-phenylamino]-3-cyano-4-(4-tert-butylaminopiperidin-1-yl)-quinoline]	0.5 to 5 µM	0.5 to 5 µM	0.5 to 5 µM	5 to 10 µM	5 to 10 µM	0.5 to 5 µM												
COc1cc(C)nc(Nc2ccc(Nc3nc4ccccc4c(N4CCC(NC(C)(C)C)CC4)c3C#N)cc2C)n1 [Compound 510CN, 2-[4-(4-methyl-6-methoxypyrimidin-2-ylamino)-3-methylphenylamino]-3-cyano-4-(4-tert-butylaminopiperidin-1-yl)quinoline]							24.8%	0.1%	54.6%	0.1%	57.4%	0.1%	62.6%	0.3%	74.5%	0.2%	2.8%	0.1%
Cc1cc2c(C)nc(Nc3ccc(Nc4nc5ccccc5c(N5CCC(NC(C)(C)C)CC5)c4C#N)cc3C)nc2o1 [Compound 512CN, 2-[3-methyl-4-(4,6-dimethylfuro[2,3-d]pyrimidin-2-ylamino)phenylamino]-3-cyano-4-(4-tert-butylaminopiperidin-1-yl)quinoline]							0.2%	0.2%	0.2%	0.2%	0.3%	0.2%	0.2%	0.3%	0.2%	0.3%	0.2%	0.2%
Cc1cc(Nc2nc3ccccc3c(N3CCC(NC(C)(C)C)CC3)c2C#N)ccc1Nc1ccnc(-c2cccnc2)n1 [Compound 522CN, 2-{3-methyl-4-[2-(pyridin-3-yl)pyrimidin-4-ylamino]phenylamino}-3-cyano-4-(4-tert-butylaminopiperidin-1-yl)quinoline]							0.3%	0.2%	0.3%	0.2%	0.3%	0.3%	0.4%	0.4%	0.3%	0.3%	0.2%	0.2%
Cc1ccnc(Nc2ccc(Nc3nc4ccccc4c(N4CCC(NC(C)(C)C)CC4)c3C#N)cc2)n1 [Compound 532CN, 2-[4-(4-methylpyrimidin-2-ylamino)phenylamino]-3-cyano-4-(4-tert-butylaminopiperidin-1-yl)quinoline]	0.5 to 5 µM	5 to 10 µM	0.5 to 5 µM	5 to 10 µM	5 to 10 µM	0.5 to 5 µM												
Cc1ccnc(Nc2ccc(Nc3nc4ccccc4c(N4CCC(NC(C)(C)C)CC4)c3C)cc2)n1 [Compound 532Me, 2-[4-(4-methylpyrimidin-2-ylamino)phenylamino]-3-methyl-4-(4-tert-butylaminopiperidin-1-yl)quinoline]							16%	0.3%	12.3%	0.3%	23.3%	0.3%	55.9%	0.5%	65.5%	0.4%	0.3%	0.3%
Cc1cc(Nc2nc3ccccc3c(N3CCC(NC(C)(C)C)CC3)c2C#N)ccc1Nc1nccc(C(F)(F)F)n1 [Compound 534CN, 2-[3-methyl-4-(4-trifluoromethylpyrimidin-2-ylamino)phenylamino]-3-cyano-4-(4-tert-butylaminopiperidin-1-yl)quinoline]							0.4%	0.2%	13%	0.2%	0.4%	0.2%	49.1%	0.4%	0.4%	0.3%	2.1%	0.2%
Cc1ccc(Nc2nc3ccccc3c(N3CCC(NC(C)(C)C)CC3)c2C#N)cc1Nc1nccc(C(F)(F)F)n1 [Compound 538CN, 2-[3-(4-trifluoromethylpyrimidin-2-ylamino)-4-methyl-phenylamino]-3-cyano-4-(4-tert-butylaminopiperidin-1-yl)-quinoline]	0.5 to 5 µM	0.5 to 5 µM	0.5 to 5 µM	5 to 10 µM	5 to 10 µM	5 to 10 µM												
CC(C)(C)NC1CCN(c2c(C#N)c(Nc3cccc(Nc4nccc(C(F)(F)F)n4)c3)nc3ccccc23)CC1 [Compound 540CN, 2-[3-(4-trifluoromethylpyrimidin-2-ylamino)phenylamino]-3-cyano-4-(4-tert-butylaminopiperidin-1-yl)quinoline]	0.5 to 5 µM	5 to 10 µM	0.5 to 5 µM	0.5 to 5 µM	0.5 to 5 µM	0.5 to 5 µM												
CC(C)(C)NC1CCN(c2c(F)c(Nc3cccc(Nc4nccc(C(F)(F)F)n4)c3)nc3ccccc23)CC1 [Compound 540F, 2-[3-(4-trifluoromethylpyrimidin-2-ylamino)phenylamino]-3-fluoro-4-(4-tert-butylaminopiperidin-1-yl)quinoline]							0.4%	0.3%	0.3%	0.2%	0.4%	0.3%	43.3%	59.4%	8.8%	0.3%	0.8%	0.3%
Cc1c(Nc2cccc(Nc3nccc(C(F)(F)F)n3)c2)nc2ccccc2c1N1CCC(NC(C)(C)C)CC1 [Compound 540Me, 2-[3-(4-trifluoromethylpyrimidin-2-ylamino)phenylamino]-3-methyl-4-(4-tert-butylaminopiperidin-1-yl)quinoline]							0.4%	0.1%	38.3%	0.1%	1.6%	0.1%	63.9%	0.2%	63.1%	0.3%	2.6%	0.1%
Cc1ccc2c(N3CCC(NC(C)(C)C)CC3)cc(NCc3ccc(Cl)cc3)nc2c1F [Compound 564, 2-(4-chlorobenzylamino)-4-[4-(tert-butylamino)piperidin-1-yl]-7-methyl-8-fluoroquinoline]	0.5 to 5 µM	0.5 to 5 µM	0.5 to 5 µM	5 to 10 µM	0.5 to 5 µM	0.5 to 5 µM												
Cc1cc(F)c2nc(NCc3ccc(Cl)cc3)cc(N3CCC(NC(C)(C)C)CC3)c2c1 [Compound 568, 2-(4-chlorobenzylamino)-4-[4-(tert-butylamino)piperidin-1-yl]-6-methyl-8-fluoroquinoline]	0.5 to 5 µM	0.5 to 5 µM	0.5 to 5 µM	5 to 10 µM	0.5 to 5 µM	0.5 to 5 µM												
